Reference: PubChem BioAssay AID2060905 (Molecular Pharmacology Branch, DTP, NCI, 2025)
“And” between values parts separate entries of the source, which are not always exact repeats. Equal values may be shown once.

Test system: 282377-053-R-J1-PDC complex spheroid viability
Experiment: Anticancer human tumor 282377-053-R-J1-PDC patient-derived colon adenocarcinoma cell line growth inhibition [RAS]
Conditions: for viability, T/C: stronger effect = lower value
Outline: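 Tumour cells grown as complex spheroids with HUVEC endothelial cells and mesenchymal stem cells, treated with RAS pathway inhibitor combinations. Each agent spans half-log steps from near clinical Cmax, or 10 microM where Cmax is unknown.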

[1] = curve of first compound, second compound 0.0316 µM
[2] = curve of first compound, second compound 0.1 µM
[3] = curve of first compound, second compound 0.316 µM
[4] = curve of first compound, second compound 1 µM
[5] = curve of first compound, second compound 3.16 µM
[6] = curve of first compound, second compound 10 µM
[7] = second compound 0.0316 µM, first compound 0.0316 µM
[8] = second compound 0.0316 µM, first compound 0.1 µM
[9] = second compound 0.1 µM, first compound 0.0316 µM
[10] = second compound 0.1 µM, first compound 0.1 µM
[11] = second compound 0.316 µM, first compound 0.0316 µM
[12] = second compound 0.316 µM, first compound 0.1 µM
[13] = second compound 1 µM, first compound 0.0316 µM
[14] = second compound 1 µM, first compound 0.1 µM
[15] = second compound 3.16 µM, first compound 0.0316 µM
[16] = second compound 3.16 µM, first compound 0.1 µM
[17] = second compound 10 µM, first compound 0.0316 µM
[18] = second compound 10 µM, first compound 0.1 µM
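Further: spheroids exposed to agents for seven days before readout.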
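Wherever viability, T/C is given: luminescence viability as percent of DMSO vehicle control wells.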

NC1c2ccccc2OC12CCN(c1cnc3c(N4CCCc5ncccc54)n[nH]c3n1)CC2 (stereo not drawn)
viability, T/C (compound 0.0316 µM): 98.1% [middle of 4 runs] | viability, T/C (compound 0.1 µM): 98.2% [middle of 4 runs] | viability, T/C (compound 0.316 µM): 101% [middle of 4 runs] | viability, T/C (compound 1 µM): 109% (2×) and 96.3% and 103% | viability, T/C (compound 3.16 µM): 97.5% [middle of 4 runs] | viability, T/C (compound 10 µM): 89.8% [middle of 4 runs] | IC50 (curve of compound): > 10 µM

CC(C)NCC(C(=O)N1CCN(c2ncnc3c2C(C)CC3O)CC1)c1ccc(Cl)cc1 (stereo not drawn) + CCn1c(-c2cc(N3CCN(C)CC3)cnc2C(C)OC)c2c3cc(ccc31)-c1csc(n1)CC(NC(=O)C1CC1C)C(=O)N1CCCC(N1)C(=O)OCC(C)(C)C2
IC50 (curve of first compound, second compound 0.000949 µM): > 10 µM | IC50 (curve of first compound, second compound 0.003 µM): > 10 µM | IC50 (curve of first compound, second compound 0.00949 µM): > 10 µM | IC50 (curve of first compound, second compound 0.03 µM): > 10 µM | IC50 (curve of first compound, second compound 0.0949 µM): > 10 µM | IC50 (curve of first compound, second compound 0.3 µM): > 10 µM | viability, T/C (second compound 0.000949 µM, first compound 0.0316 µM): 96.1% | viability, T/C (second compound 0.000949 µM, first compound 0.1 µM): 93.7% | viability, T/C (second compound 0.000949 µM, first compound 0.316 µM): 80.8% | viability, T/C (second compound 0.000949 µM, first compound 1 µM): 79.4% | viability, T/C (second compound 0.000949 µM, first compound 3.16 µM): 78% | viability, T/C (second compound 0.000949 µM, first compound 10 µM): 76.5% | viability, T/C (second compound 0.003 µM, first compound 0.0316 µM): 90.7% | viability, T/C (second compound 0.003 µM, first compound 0.1 µM): 106% | viability, T/C (second compound 0.003 µM, first compound 0.316 µM): 88.2% | viability, T/C (second compound 0.003 µM, first compound 1 µM): 71.8% | viability, T/C (second compound 0.003 µM, first compound 3.16 µM): 76.2% | viability, T/C (second compound 0.003 µM, first compound 10 µM): 68.3% | viability, T/C (second compound 0.00949 µM, first compound 0.0316 µM): 93% | viability, T/C (second compound 0.00949 µM, first compound 0.1 µM): 119% | viability, T/C (second compound 0.00949 µM, first compound 0.316 µM): 79.4% | viability, T/C (second compound 0.00949 µM, first compound 1 µM): 68% | viability, T/C (second compound 0.00949 µM, first compound 3.16 µM): 70.7% | viability, T/C (second compound 0.00949 µM, first compound 10 µM): 69.1% | viability, T/C (second compound 0.03 µM, first compound 0.0316 µM): 111% | viability, T/C (second compound 0.03 µM, first compound 0.1 µM): 83.1% | viability, T/C (second compound 0.03 µM, first compound 0.316 µM): 82.5% | viability, T/C (second compound 0.03 µM, first compound 1 µM): 70% | viability, T/C (second compound 0.03 µM, first compound 3.16 µM): 65.3% | viability, T/C (second compound 0.03 µM, first compound 10 µM): 64.4% | viability, T/C (second compound 0.0949 µM, first compound 0.0316 µM): 95.3% | viability, T/C (second compound 0.0949 µM, first compound 0.1 µM): 87.6% | viability, T/C (second compound 0.0949 µM, first compound 0.316 µM): 93.8% | viability, T/C (second compound 0.0949 µM, first compound 1 µM): 62.8% | viability, T/C (second compound 0.0949 µM, first compound 3.16 µM): 63.8% | viability, T/C (second compound 0.0949 µM, first compound 10 µM): 65.4% | viability, T/C (second compound 0.3 µM, first compound 0.0316 µM): 100% | viability, T/C (second compound 0.3 µM, first compound 0.1 µM): 86.6% | viability, T/C (second compound 0.3 µM, first compound 0.316 µM): 109% | viability, T/C (second compound 0.3 µM, first compound 1 µM): 69.1% | viability, T/C (second compound 0.3 µM, first compound 3.16 µM): 64.6% | viability, T/C (second compound 0.3 µM, first compound 10 µM): 69.9%

CC(C)n1nc(-c2ccc3oc(N)nc3c2)c2c(N)ncnc21 + C#Cc1c(F)ccc2cc(O)cc(-c3ncc4c(N5CC6CCC(C5)N6)nc(OCC56CCCN5CC(F)C6)nc4c3F)c12
IC50 [1]: > 0.1 µM | IC50 [2]: > 0.1 µM | IC50 [3]: 0.0881 µM | IC50 [4]: > 0.1 µM | IC50 [5]: 0.0783 µM | IC50 [6]: > 0.1 µM | viability, T/C (second compound 0.0316 µM, first compound 0.000316 µM): 101% | viability, T/C (second compound 0.0316 µM, first compound 0.001 µM): 87.2% | viability, T/C (second compound 0.0316 µM, first compound 0.00316 µM): 105% | viability, T/C (second compound 0.0316 µM, first compound 0.01 µM): 77.5% | viability, T/C [7]: 72.7% | viability, T/C [8]: 56.9% | viability, T/C (second compound 0.1 µM, first compound 0.000316 µM): 115% | viability, T/C (second compound 0.1 µM, first compound 0.001 µM): 107% | viability, T/C (second compound 0.1 µM, first compound 0.00316 µM): 89% | viability, T/C (second compound 0.1 µM, first compound 0.01 µM): 77.7% | viability, T/C [9]: 66.6% | viability, T/C [10]: 50.2% | viability, T/C (second compound 0.316 µM, first compound 0.000316 µM): 99.8% | viability, T/C (second compound 0.316 µM, first compound 0.001 µM): 99.6% | viability, T/C (second compound 0.316 µM, first compound 0.00316 µM): 80.8% | viability, T/C (second compound 0.316 µM, first compound 0.01 µM): 71.1% | viability, T/C [11]: 69.4% | viability, T/C [12]: 45.3% | viability, T/C (second compound 1 µM, first compound 0.000316 µM): 104% | viability, T/C (second compound 1 µM, first compound 0.001 µM): 81.2% | viability, T/C (second compound 1 µM, first compound 0.00316 µM): 82.9% | viability, T/C (second compound 1 µM, first compound 0.01 µM): 66.4% | viability, T/C [13]: 75.9% | viability, T/C [14]: 46.8% | viability, T/C (second compound 3.16 µM, first compound 0.000316 µM): 87% | viability, T/C (second compound 3.16 µM, first compound 0.001 µM): 76% | viability, T/C (second compound 3.16 µM, first compound 0.00316 µM): 91.5% | viability, T/C (second compound 3.16 µM, first compound 0.01 µM): 81.1% | viability, T/C [15]: 76.3% | viability, T/C [16]: 42.8% | viability, T/C (second compound 10 µM, first compound 0.000316 µM): 108% | viability, T/C (second compound 10 µM, first compound 0.001 µM): 91.5% | viability, T/C (second compound 10 µM, first compound 0.00316 µM): 84.6% | viability, T/C (second compound 10 µM, first compound 0.01 µM): 72% | viability, T/C [17]: 52.7% | viability, T/C [18]: 60.7%

C[C@@H](NC(=O)c1ncnc(N)c1Cl)c1ncc(C(=O)Nc2cc(C(F)(F)F)c(Cl)cn2)s1 + C#Cc1c(F)ccc2cc(O)cc(-c3ncc4c(N5CC6CCC(C5)N6)nc(OCC56CCCN5CC(F)C6)nc4c3F)c12
IC50 [1]: > 10 µM | IC50 [2]: > 10 µM | IC50 [3]: > 10 µM | IC50 [4]: > 10 µM | IC50 [5]: > 10 µM | IC50 [6]: > 10 µM | viability, T/C [7]: 121% | viability, T/C [8]: 99.5% | viability, T/C (second compound 0.0316 µM, first compound 0.316 µM): 89.2% | viability, T/C (second compound 0.0316 µM, first compound 1 µM): 86.5% | viability, T/C (second compound 0.0316 µM, first compound 3.16 µM): 87.1% | viability, T/C (second compound 0.0316 µM, first compound 10 µM): 78.5% | viability, T/C [9]: 103% | viability, T/C [10]: 111% | viability, T/C (second compound 0.1 µM, first compound 0.316 µM): 88.7% | viability, T/C (second compound 0.1 µM, first compound 1 µM): 76.7% | viability, T/C (second compound 0.1 µM, first compound 3.16 µM): 79.6% | viability, T/C (second compound 0.1 µM, first compound 10 µM): 93.5% | viability, T/C [11]: 105% | viability, T/C [12]: 112% | viability, T/C (second compound 0.316 µM, first compound 0.316 µM): 84.8% | viability, T/C (second compound 0.316 µM, first compound 1 µM): 91.2% | viability, T/C (second compound 0.316 µM, first compound 3.16 µM): 75.7% | viability, T/C (second compound 0.316 µM, first compound 10 µM): 71.7% | viability, T/C [13]: 104% | viability, T/C [14]: 86.6% | viability, T/C (second compound 1 µM, first compound 0.316 µM): 94.1% | viability, T/C (second compound 1 µM, first compound 1 µM): 67% | viability, T/C (second compound 1 µM, first compound 3.16 µM): 90.4% | viability, T/C (second compound 1 µM, first compound 10 µM): 77% | viability, T/C [15]: 79.9% | viability, T/C [16]: 101% | viability, T/C (second compound 3.16 µM, first compound 0.316 µM): 104% | viability, T/C (second compound 3.16 µM, first compound 1 µM): 77.5% | viability, T/C (second compound 3.16 µM, first compound 3.16 µM): 80.9% | viability, T/C (second compound 3.16 µM, first compound 10 µM): 80.3% | viability, T/C [17]: 91.3% | viability, T/C [18]: 102% | viability, T/C (second compound 10 µM, first compound 0.316 µM): 91.9% | viability, T/C (second compound 10 µM, first compound 1 µM): 85% | viability, T/C (second compound 10 µM, first compound 3.16 µM): 90.8% | viability, T/C (second compound 10 µM, first compound 10 µM): 86.9%
